# Source: patent publication US12351580B2, “NLRP3 modulators” (Innate Tumor Immunity, Inc., priority 2017, dated 2025)
# pEC50: −log10 of the molar value.
# Tests used:
# [1] = biological target: T1, TLR7 (Homo sapiens, UniProt Q9NYK1); assay: In vitro human TLR7 binding reporter assay (HEK-Blue, NF-kB/AP1-inducible SEAP); type: cell-based; conditions: activity range symbols
# T1 construct: host or cells: HEK-Blue cells (human HEK) co-expressing TLR7 and an NF-kB/AP1-inducible SEAP reporter
# T1 sequence (Q9NYK1 27-1049): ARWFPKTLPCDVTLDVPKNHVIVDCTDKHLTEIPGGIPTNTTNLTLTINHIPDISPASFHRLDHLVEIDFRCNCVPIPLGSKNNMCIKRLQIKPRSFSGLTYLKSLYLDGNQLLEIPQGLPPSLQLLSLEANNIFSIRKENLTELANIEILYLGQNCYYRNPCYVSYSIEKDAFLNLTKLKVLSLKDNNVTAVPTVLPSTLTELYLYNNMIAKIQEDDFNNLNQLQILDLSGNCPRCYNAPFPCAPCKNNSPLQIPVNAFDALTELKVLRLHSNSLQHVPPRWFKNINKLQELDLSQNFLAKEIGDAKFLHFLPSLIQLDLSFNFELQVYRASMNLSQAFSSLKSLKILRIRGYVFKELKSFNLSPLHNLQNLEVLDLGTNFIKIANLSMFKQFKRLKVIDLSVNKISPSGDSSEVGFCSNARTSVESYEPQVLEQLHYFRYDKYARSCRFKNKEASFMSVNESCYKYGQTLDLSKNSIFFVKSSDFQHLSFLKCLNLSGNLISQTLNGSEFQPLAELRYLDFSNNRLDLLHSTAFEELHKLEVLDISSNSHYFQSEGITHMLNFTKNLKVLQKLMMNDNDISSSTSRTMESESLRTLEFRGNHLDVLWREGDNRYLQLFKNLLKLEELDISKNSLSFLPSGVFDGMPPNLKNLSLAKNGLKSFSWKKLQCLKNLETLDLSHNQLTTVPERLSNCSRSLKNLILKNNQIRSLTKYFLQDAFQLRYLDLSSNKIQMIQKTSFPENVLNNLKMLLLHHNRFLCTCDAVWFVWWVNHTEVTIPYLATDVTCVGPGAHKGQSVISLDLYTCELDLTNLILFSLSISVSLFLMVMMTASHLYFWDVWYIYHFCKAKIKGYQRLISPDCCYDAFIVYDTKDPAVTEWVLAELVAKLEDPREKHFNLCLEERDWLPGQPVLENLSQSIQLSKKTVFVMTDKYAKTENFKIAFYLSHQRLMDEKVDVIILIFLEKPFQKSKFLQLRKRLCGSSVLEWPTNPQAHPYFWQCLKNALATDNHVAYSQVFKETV
# Protocol: (§1) In Vitro Human TLR7 and TLR8 Binding Reporter Assays
# (§2) Logarithmically-growing human HEK-Blue cells co-expressing a TLR7 or TLR8 gene and a NF-kB/AP1-inducible SEAP (secreted embryonic alkaline phosphatase; Invivogen, San Diego, CA) reporter gene are added to individual wells of a 384-well plate (15,000 cells per 20 μL per well) and maintained for 24 h at 37° C., 5% CO2. Test compounds or DMSO are distributed to separate wells the next day using acoustic liquid handling technology (100 nL per well) and cells are subsequently incubated for 18 h at 37° C., 5% CO2. Cellular SEAP production is measured using an Envision plate reader instrument thirty minutes after adding freshly-made Quanti-Blue reagent (prepared by following manufacturer instructions; Invivogen, San Diego, CA) to the HEK-Blue TLR Nf-kB-SEAP cell reactions. All EC50 values (half-maximal effective concentration) are determined using proprietary data analysis software.
# [2] = biological target: T2, TLR8 (Homo sapiens, UniProt Q9NR97); assay: In vitro human TLR8 binding reporter assay (HEK-Blue, NF-kB/AP1-inducible SEAP); type: cell-based; conditions: activity range symbols
# T2 construct: host or cells: HEK-Blue cells (human HEK) co-expressing TLR8 and an NF-kB/AP1-inducible SEAP reporter
# T2 sequence (Q9NR97 27-1041): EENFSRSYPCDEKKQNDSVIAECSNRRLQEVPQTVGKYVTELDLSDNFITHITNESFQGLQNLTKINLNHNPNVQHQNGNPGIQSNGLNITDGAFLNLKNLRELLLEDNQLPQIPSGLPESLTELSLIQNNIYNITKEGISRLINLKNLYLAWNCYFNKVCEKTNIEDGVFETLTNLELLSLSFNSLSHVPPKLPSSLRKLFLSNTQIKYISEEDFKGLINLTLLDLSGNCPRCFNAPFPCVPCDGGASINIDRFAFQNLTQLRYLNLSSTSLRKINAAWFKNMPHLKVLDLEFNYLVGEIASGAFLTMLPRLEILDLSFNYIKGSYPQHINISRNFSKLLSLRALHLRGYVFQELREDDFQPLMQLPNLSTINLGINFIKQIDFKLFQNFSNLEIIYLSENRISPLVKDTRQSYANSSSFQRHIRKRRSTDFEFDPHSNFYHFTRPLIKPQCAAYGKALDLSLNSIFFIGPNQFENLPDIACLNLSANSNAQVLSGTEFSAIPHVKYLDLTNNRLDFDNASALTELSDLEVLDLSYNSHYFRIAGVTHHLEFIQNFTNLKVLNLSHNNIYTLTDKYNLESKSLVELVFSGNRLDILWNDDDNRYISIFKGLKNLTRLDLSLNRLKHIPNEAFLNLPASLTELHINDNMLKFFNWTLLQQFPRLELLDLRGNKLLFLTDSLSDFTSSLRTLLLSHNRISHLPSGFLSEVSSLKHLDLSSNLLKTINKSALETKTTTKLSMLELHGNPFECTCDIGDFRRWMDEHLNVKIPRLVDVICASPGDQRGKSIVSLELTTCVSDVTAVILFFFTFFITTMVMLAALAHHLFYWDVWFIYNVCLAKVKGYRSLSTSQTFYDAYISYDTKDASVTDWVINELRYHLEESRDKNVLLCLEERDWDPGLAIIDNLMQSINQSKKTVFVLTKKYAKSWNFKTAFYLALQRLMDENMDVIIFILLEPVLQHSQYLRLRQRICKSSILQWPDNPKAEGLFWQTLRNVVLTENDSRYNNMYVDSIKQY
# Protocol: as §1, §2
structure (smiles),measurement,setting,value
CCN(Cc1nc2c(N)nc3ccccc3c2n1CCC(=O)NC)C(C)=O [Compound 199],pEC50,[1],< 4.00
same,pEC50,[2],< 4.00
